Publication PMC8450076, “Structural and mechanistic insights into the Artemis endonuclease and strategies for its inhibition” (Nucleic Acids Research, 2021)

Columns and labels:
[1] = molecular target: T1, Artemis (SNM1C/DCLRE1C) (Homo sapiens, UniProt Q96SD1); test: biochemical
Target sequence in this assay (Q96SD1 whole entry, the tested form may be a part): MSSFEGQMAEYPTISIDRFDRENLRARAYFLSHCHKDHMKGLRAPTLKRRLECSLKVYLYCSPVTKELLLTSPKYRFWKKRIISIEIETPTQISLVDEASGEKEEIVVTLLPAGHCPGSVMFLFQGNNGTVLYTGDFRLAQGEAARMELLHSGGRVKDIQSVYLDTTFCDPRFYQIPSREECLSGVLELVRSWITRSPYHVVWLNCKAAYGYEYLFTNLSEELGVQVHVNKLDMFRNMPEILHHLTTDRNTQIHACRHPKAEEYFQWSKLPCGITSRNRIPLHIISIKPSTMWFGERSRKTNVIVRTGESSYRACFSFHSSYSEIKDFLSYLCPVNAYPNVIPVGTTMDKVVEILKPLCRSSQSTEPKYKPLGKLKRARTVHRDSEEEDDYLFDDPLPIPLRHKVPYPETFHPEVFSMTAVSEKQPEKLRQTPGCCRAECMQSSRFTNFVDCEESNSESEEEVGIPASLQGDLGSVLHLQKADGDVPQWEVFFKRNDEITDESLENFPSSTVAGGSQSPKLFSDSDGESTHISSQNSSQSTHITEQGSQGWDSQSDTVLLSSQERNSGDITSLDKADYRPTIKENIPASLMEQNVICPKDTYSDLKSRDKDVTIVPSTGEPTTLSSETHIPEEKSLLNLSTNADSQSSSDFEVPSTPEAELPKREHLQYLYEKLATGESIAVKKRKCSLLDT

[2] = molecular target: T1, Artemis (SNM1C/DCLRE1C); test: X-ray crystal structure ([…] Å) plus real-time fluorescence-based nuclease assay (IC50); type: biochemical; parameters: truncated Artemis catalytic domain, MBL-β-CASP (aa 1-361)
Description: We solved a structure of ceftriaxone bound to Artemis
Target sequence in this assay (Q96SD1 1-361): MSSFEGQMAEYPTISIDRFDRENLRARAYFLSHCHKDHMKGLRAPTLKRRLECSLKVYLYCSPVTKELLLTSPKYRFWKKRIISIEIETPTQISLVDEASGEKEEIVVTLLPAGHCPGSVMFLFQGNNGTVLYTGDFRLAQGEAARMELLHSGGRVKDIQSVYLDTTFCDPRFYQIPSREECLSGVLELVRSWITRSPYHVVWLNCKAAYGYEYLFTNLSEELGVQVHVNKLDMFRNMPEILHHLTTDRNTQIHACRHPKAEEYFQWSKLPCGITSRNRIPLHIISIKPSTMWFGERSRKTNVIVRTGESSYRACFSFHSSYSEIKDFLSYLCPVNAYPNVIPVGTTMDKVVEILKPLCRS

| SMILES | IC50 [1] [µM] | also measured |
| --- | --- | --- |
| CC[P](CC)(CC)=[Au][S][C@@H]1O[C@H](COC(C)=O)[C@@H](OC(C)=O)[C@H](OC(C)=O)[C@H]1OC(C)=O [auranofin] | 46 |  |
| CO/N=C(\C(=O)N[C@@H]1C(=O)N2C(C(=O)O)=C(CSc3nc(=O)c(=O)[nH]n3C)CS[C@H]12)c1csc(N)n1 [ceftriaxone] |  | IC50 [2]: 65 µM |
| CCN(CC)C(=S)SSC(=S)N(CC)CC [disulfiram] |  | IC50 ([1]; read-out: IC50): ~10.8 µM |
| O=c1c2ccccc2[se]n1-c1ccccc1 [ebselen] | ~8.5 |  |
